{
  "source": "patent US10183950B2",
  "about": "“Thienopyrimidine inhibitors of atypical protein kinase C” (Cancer Research Technology Limited, priority 2011, dated 2019)",
  "data": [
    {"target": "T1, full-length human PKCι (Homo sapiens, UniProt P41743)", "T1 construct": "Recombinant, full-length human PKCι expressed in Sf21 insect cells is also commercially available; purchased; host or cells: Sf21 insect cells", "T1 sequence (P41743 1-596)": "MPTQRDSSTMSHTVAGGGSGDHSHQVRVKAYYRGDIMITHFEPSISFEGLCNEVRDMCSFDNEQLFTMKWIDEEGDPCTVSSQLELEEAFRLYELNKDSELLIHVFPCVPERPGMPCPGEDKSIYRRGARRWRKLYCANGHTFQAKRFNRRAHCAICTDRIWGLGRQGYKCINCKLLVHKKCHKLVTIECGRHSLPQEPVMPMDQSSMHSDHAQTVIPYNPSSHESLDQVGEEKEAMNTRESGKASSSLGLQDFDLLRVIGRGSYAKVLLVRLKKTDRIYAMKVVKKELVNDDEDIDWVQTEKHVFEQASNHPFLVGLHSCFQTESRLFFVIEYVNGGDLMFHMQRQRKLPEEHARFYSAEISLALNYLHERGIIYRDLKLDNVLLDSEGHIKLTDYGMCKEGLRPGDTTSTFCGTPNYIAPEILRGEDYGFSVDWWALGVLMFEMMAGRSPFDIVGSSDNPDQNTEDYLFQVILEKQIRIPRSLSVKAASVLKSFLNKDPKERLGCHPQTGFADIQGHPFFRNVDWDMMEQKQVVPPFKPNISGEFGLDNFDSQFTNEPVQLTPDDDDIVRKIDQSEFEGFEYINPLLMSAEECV", "test": "PKCι IC50 IMAP fluorescence polarisation assay, full-length enzyme", "assay_type": "biochemical", "details": "full length PKCi at 15 μM ATP; read-out: IC50 in IMAP assay against full length PKCi", "experimental": "(§1) Assays are based on the ability of PKCι to phosphorylate a commercially available peptide substrate in vitro. […] Recombinant, full-length human PKCι expressed in Sf21 insect cells is also commercially available. Recombinant, kinase-domain human PKCι is expressed and purified in-house.\n(§2) The procedure below explains how dose response curves for inhibitors of PKCι are obtained.\n(§3) Compounds to be tested are dissolved in 100% DMSO. […] 1 μl is plated into 384 well black low-binding flat bottomed assay plates which are used immediately. Dilutions and additions of compound to assay plates are carried out using Matrix WellMate® and Matrix PlateMate® Plus liquid handling systems.\n(§4) The final concentration of peptide substrate in the assay is 100 nM. […] Relevant controls are included, namely no compound and no enzyme. […] The reaction is allowed to incubate for 60 minutes at room temperature, before the reaction is stopped and developed by the addition of 20 μl IMAP™ development reagent (Molecular Devices). IMAP development reagent consists of 0.25% (v/v) IMAP progressive binding reagent, 17% (v/v) IMAP progressive binding buffer A and 3% (v/v) IMAP progressive binding buffer B. The plates are then incubated for 2 hours at room temperature before being read using an appropriate plate reader, for example a Molecular Devices HT Analyst or a BMG Pherastar.", "units": {"IC50": "nM"}, "values": [
      {"compound": "c1cc(-c2nc(N[C@@H]3CCNC3)c3sccc3n2)cc(NC2CCCCC2)n1", "note": "[compound 623, [2-(2-Cyclohexylamino-pyridin-4-yl)-thieno[3,2-d]pyrimidin-4-yl]-(R)-pyrrolidin-3-yl-amine]", "IC50": "10000 to 40000"},
      {"compound": "C[C@H](O)CNc1cc(-c2nc(N[C@@H]3CCNC3)c3sccc3n2)ccn1", "note": "[compound 591, (S)-1-{4-[4-((R)-Pyrrolidin-3-ylamino)-thieno[3,2-d]pyrimidin-2-yl]-pyridin-2-ylamino}-propan-2-ol]", "IC50": "1000 to 10000"},
      {"compound": "Cc1c(Br)sc2c(NC[C@@H](N)Cc3ccccc3)nc(-c3ccncc3)nc12", "note": "[compound 337, (S)-N*1*-(6-Bromo-7-methyl-2-pyridin-4-yl-thieno[3,2-d]pyrimidin-4-yl)-3-phenyl-propane-1,2-diamine]", "IC50": "100 to 1000"},
      {"compound": "Fc1ccc(Nc2csc3c(N[C@@H]4CCNC4)nc(-c4ccncc4F)nc23)cc1", "note": "[compound 493, N*7*-(4-Fluoro-phenyl)-2-(3-fluoro-pyridin-4-yl)-N*4*-(R)-pyrrolidin-3-yl-thieno[3,2-d]pyrimidine-4,7-diamine]", "IC50": "10000 to 40000"},
      {"compound": "NC(=O)CN1C[C@H](Nc2nc(-c3ccnc(NC(=O)c4cccs4)c3)nc3ccsc23)[C@@H](O)C1", "note": "[compound 629, Thiophene-2-carboxylic acid {4-[4-((3S,4S)-1-carbamoylmethyl-4-hydroxy-pyrrolidin-3-ylamino)-thieno[3,2-d]pyrimidin-2-yl]-pyridin-2-yl}-amide]", "IC50": "1000 to 10000"},
      {"compound": "N[C@H](CNc1nc(-c2ccncc2)nc2c(-n3cccn3)csc12)Cc1ccccc1", "note": "[compound 561, (S)-3-Phenyl-N*1*-(7-pyrazol-1-yl-2-pyridin-4-yl-thieno [3,2-d]pyrimidin-4-yl)-propane-1,2-diamine]", "IC50": "100 to 1000"},
      {"compound": "C[C@H](N)CNc1nc(-c2ccncc2)nc2c(Br)csc12", "note": "[compound 305, (S)—N*1*-(7-Bromo-2-pyridin-4-yl-thieno[3,2-d]pyrimidin-4-yl)-propane-1,2-diamine]", "IC50": "100 to 1000"},
      {"compound": "CC(O)CC#Cc1csc2c(NC[C@@H](N)Cc3ccccc3)nc(-c3ccncc3)nc12", "note": "(stereo partly drawn) [compound 536, 5-[4-((S)-2-Amino-3-phenyl-propylamino)-2-pyridin-4-yl-thieno[3,2-d]pyrimidin-7-yl]-pent-4-yn-2-ol]", "IC50": "< 100"},
      {"compound": "Fc1cnccc1-c1nc(N[C@@H]2CCNC2)c2scc(Nc3ccccn3)c2n1", "note": "[compound 495, 2-(3-Fluoro-pyridin-4-yl)-N*7*-pyridin-2-yl-N*4*- (R)-pyrrolidin-3-yl-thieno[3,2-d]pyrimidine-4,7-diamine]", "IC50": "10000 to 40000"},
      {"compound": "N[C@H](CNc1nc(-c2ccncc2)nc2c(Nc3ncccn3)csc12)Cc1ccccc1", "note": "[compound 488, N*4*-((S)-2-Amino-3-phenyl-propyl)-2-pyridin-4-yl-N*7*-pyrimidin-2-yl-thieno[3,2-d]pyrimidine-4,7-diamine]", "IC50": "100 to 1000"},
      {"compound": "Fc1cnc(Nc2ccccc2)cc1-c1nc(N[C@@H]2CCNC2)c2sccc2n1", "note": "[compound 579, [2-(5-Fluoro-2-phenylamino-pyridin-4-yl)-thieno[3,2-d]pyrimidin-4-yl]-(R)-pyrrolidin-3-yl-amine]", "IC50": "1000 to 10000"},
      {"compound": "N[C@@H](CNc1nc(-c2ccncc2)nc2c(-c3ccn[nH]3)csc12)Cc1ccccc1", "note": "[compound 414, (R)-3-Phenyl-N*1*-[7-(1H-pyrazol-3-yl)-2-pyridin-4-yl-thieno[3,2-d]pyrimidin-4-yl]-propane-1,2-diamine]", "IC50": "100 to 1000"},
      {"compound": "N[C@H](CNc1nc(-c2ccncc2F)nc2c(C#CCO)csc12)Cc1ccccc1", "note": "[compound 506, 3-[4-((S)-2-Amino-3-phenyl-propylamino)-2-(3-fluoro-pyridin-4-yl)-thieno[3,2-d]pyrimidin-7-yl]-prop-2-yn-1-ol]", "IC50": "< 100"},
      {"compound": "Brc1csc2c(NC[C@H]3CCCN3)nc(-c3ccncc3)nc12", "note": "[compound 342, (7-Bromo-2-pyridin-4-yl-thieno[3,2-d]pyrimidin-4-yl)-(R)-1-pyrrolidin-2-ylmethyl-amine]", "IC50": "10000 to 40000"},
      {"compound": "N[C@H](CNc1nc(-c2ccncc2)nc2c(C#CCCO)csc12)Cc1ccccc1", "note": "[compound 531, 4-[4-((S)-2-Amino-3-phenyl-propylamino)-2-pyridin-4-yl-thieno[3,2-d]pyrimidin-7-yl]-but-3-yn-1-ol]", "IC50": "< 100"},
      {"compound": "Cc1sc2c(NC[C@@H](N)Cc3ccccc3)nc(-c3ccncc3)nc2c1-c1ccn[nH]1", "note": "[compound 388, (S)—N*1*-[6-methyl-7-(2H-pyrazol-3-yl)-2-pyridin-4-yl-thieno[3,2-d]pyrimidin-4-yl]-3-phenyl-propane-1,2-diamine]", "IC50": "< 100"},
      {"compound": "N[C@H](CNc1nc(-c2ccncc2)nc2c(-c3ccc(F)cc3)csc12)Cc1ccccc1", "note": "[compound 409, (S)-N*1*-[7-(4-Fluoro-phenyl)-2-pyridin-4-yl-thieno[3,2-d]pyrimidin-4-yl]-3-phenyl-propane-1,2-diamine]", "IC50": "100 to 1000"},
      {"compound": "Cc1ccc(Nc2cc(-c3nc(N[C@@H]4CCNC4)c4sccc4n3)ccn2)nn1", "note": "[compound 588, {2-[2-(6-Methyl-pyridazin-3-ylamino)-pyridin-4-yl]-thieno[3,2-d]pyrimidin-4-yl}-(R)-pyrrolidin-3-yl-amine]", "IC50": "100 to 1000"},
      {"compound": "CC[C@](C)(O)C#Cc1csc2c(NC[C@@H](N)Cc3ccccc3)nc(-c3ccncc3)nc12", "note": "[compound 523, (S)-1-[4-((S)-2-Amino-3-phenyl-propylamino)-2-pyridin-4-yl-thieno[3,2-d]pyrimidin-7-yl]-3-methyl-pent-1-yn-3-ol]", "IC50": "100 to 1000"},
      {"compound": "CCC(C)(C)C(=O)Nc1csc2c(N[C@@H]3CCNC3)nc(-c3ccncc3)nc12", "note": "[compound 471, 2,2-Dimethyl-N-[2-pyridin-4-yl-4-((R)-pyrrolidin-3-ylamino)-thieno[3,2-d]pyrimidin-7-yl]-butyramide]", "IC50": "10000 to 40000"},
      {"compound": "c1csc(-c2ccc(Nc3cc(-c4nc(N[C@@H]5CCNC5)c5sccc5n4)ccn3)cc2)c1", "note": "[compound 616, (R)-Pyrrolidin-3-yl-{2-[2-(4-thiophen-2-yl-phenylamino)-pyridin-4-yl]-thieno[3,2-d]pyrimidin-4-yl}-amine]", "IC50": "100 to 1000"},
      {"compound": "CC(C)(C)c1sc2c(NC[C@@H](N)Cc3ccccc3)nc(-c3ccncc3)nc2c1-c1ccc(F)nc1", "note": "[compound 443, (S)-N*1*-[6-tert-Butyl-7-(6-fluoro-pyridin-3-yl)-2-pyridin-4-yl-thieno[3,2-d]pyrimidin-4-yl]-3-phenyl-propane-1,2-diamine]", "IC50": "10000 to 40000"},
      {"compound": "NC(CNc1nc(-c2ccncc2F)nc2c(-c3cncnc3)csc12)Cc1ccccc1", "note": "(stereo in doubt) [compound 422, (R)-N*1*-[2-(3-Fluoro-pyridin-4-yl)-7-pyrimidin-5-yl-thieno[3,2-d]pyrimidin-4-yl]-3-phenyl-propane-1,2-diamine]", "IC50": "1000 to 10000"}
    ]},
    {"target": "T1, full-length human PKCι", "test": "PKCι IC50 IMAP fluorescence polarisation assay, full-length enzyme", "assay_type": "biochemical", "details": "full length PKCi at 15 μM ATP; read-out: IC50 in IMAP assay against full length PKCi (Activity)", "experimental": "as §1, §2, §3, §4", "units": {"IC50": "nM"}, "values": [
      {"compound": "N[C@@H](CNc1nc(-c2ccncc2)nc2sc3c(c12)CCOC3)Cc1ccccc1", "note": "[compound 83, (R)-3-Phenyl-N*1*-(2-pyridin-4-yl-5,8-dihydro-6H-pyrano[4′,3′:4,5]thieno[2,3-d]pyrimidin-4-yl)-propane-1,2-diamine]", "IC50": "10000 to 40000"},
      {"compound": "CN1CCc2c(sc3nc(-c4ccncc4)nc(NCCN)c23)C1", "note": "[compound 113, N*1*-(7-Methyl-2-pyridin-4-yl-5,6,7,8-tetrahydro-pyrido[4′,3′:4,5]thieno[2,3-d]pyrimidin-4-yl)-ethane-1,2-diamine]", "IC50": "10000 to 40000"},
      {"compound": "CC(C)C(=O)N1CCc2c(sc3nc(-c4ccncc4)nc(NCCN)c23)C1", "note": "[compound 107, 1-[4-(2-Amino-ethylamino)-2-pyridin-4-yl-5,8-dihydro-6H-pyrido[4′,3′:4,5]thieno[2,3-d]pyrimidin-7-yl]-2-methyl-propan-1-one]", "IC50": "10000 to 40000"},
      {"compound": "N[C@@H](CNc1nc(-c2ccncc2)nc2sc3c(c12)CCSC3)Cc1ccccc1", "note": "[compound 81, (R)-3-Phenyl-N*1*-(2-pyridin-4-yl-5,8-dihydro-6H-thiopyrano[4′,3′:4,5]thieno[2,3-d]pyrimidin-4-yl)-propane-1,2-diamine]", "IC50": "1000 to 10000"},
      {"compound": "CCCCC(=O)N1CCc2c(sc3nc(-c4ccncc4)nc(NCCN)c23)C1", "note": "[compound 110, 1-[4-(2-Amino-ethylamino)-2-pyridin-4-yl-5,8-dihydro-6H-pyrido[4′,3′:4,5]thieno[2,3-d]pyrimidin-7-yl]-pentan-1-one]", "IC50": "10000 to 40000"}
    ]}
  ]
}
